The text below walks through data of patent US20250090441A1, “ANTI-CARIES PEPTIDES WITH ANTIMICROBIAL AND REMINERALIZING PROPERTIES AND METHODS THEREOF” (THE UNIVERSITY OF HONG KONG, priority 2023, published 2025).

Bridges are numbered along the chain shown (N, C = ends). Where no end group is shown, it is not given here.

The nature of experiment [1]: Remineralizing effects on enamel, chemical pH cycling model (SEM-EDS, Micro-CT, XRD). The following applies: 160 μM twice daily, pH cycling 8 days, n = 8; for Calcium to phosphate molar ratio: EDS; for Lesion depth / Mineral loss: Micro-CT. More on the design: species or system human. How it is done:
Ten enamel slices were cut from extracted sound human molars. Each slice was separated into four blocks. A total of 40 enamel blocks were prepared. Then the surface of the enamel block was half-covered by an acid-resistant varnish. The exposed half was the experimental surface, and the varnished half was the internal control. Before use, all the enamel blocks were sterilized via autoclave (Niu et al. 2021d; Yu et al. 2018).
The pH-cycling procedure (16 h-demineralization at pH 4.5 and 8 h-remineralization at pH 7.0) was performed to enamel blocks for 8 days. The formula for demineralizing/remineralizing solution was employed from a previous study (Yu et al. 2018). The enamel blocks from the same enamel slice were treated twice daily with 160 μM GAPI (GAPI Group), 160 μM gallic acid (GA Group), 160 μM polyphemusin-I (PI Group), and sterile deionized water (Water Group). All enamel blocks after pH cycling were involved in sequent assessments.
The structure of the enamel surface was examined using SEM (n=8 per group) (Niu et al. 2021d). The elemental analysis of enamel surface was conducted using affiliated energy-dispersive X-ray spectroscopy (EDS). The calcium to phosphorus molar ratio was calculated (Niu et al. 2022). The mineral loss and lesion depth on the enamel blocks were assessed using microcomputed tomography (Micro-CT) (1076, SkyScan, Antwerp, Belgium) (n=8 per group) (Niu et al. 2022). The diffraction patterns of the enamel blocks were evaluated using X-ray diffraction analysis (XRD) (Rigaku SmartLab 9 kW, […]) (n=2 per group) (Yu et al. 2018).

Experiment [2] deals with Lacticaseibacillus casei, ATCC 334. Put plainly: MIC and MBC/MFC test. In kind it is cell-based. The following applies: μM. How it is done: (§1) The antimicrobial properties of synthesized peptides against bacteria and fungi were evaluated using minimum inhibitory concentration (MIC) and minimum bactericidal/fungicidal concentration (MBC/MFC) tests (Wiegand et al. 2008). The tested species include Streptococcus mutans, UA159; Lacticaseibacillus casei, American Type Culture Collection (ATCC) 334; and Candida albicans, ATCC 90028. A 10 μL aliquot of bacterial culture (10^6 CFU/mL) in brain heart infusion (BHI) broth was added to 100 μL serial two-fold dilutions of experimental solutions. The optical density values at 660 nm were measured after 18 h of incubation. To determine the MBC, 10 μL of bacterial culture was taken from the well of MIC, and wells before and after the well of MIC, and transferred to blood agar. The test protocol for fungi was similar: the culture medium was a Roswell Park Memorial Institute (RPMI) 1640 Medium, the absorbance was measured at 520 nm, and Sabouraud dextrose agar was used for the MFC test. Chlorhexidine and medium were used as the positive and negative controls.

The test system of experiment [3] is Streptococcus mutans, UA159. Put plainly: MIC and MBC/MFC test. Particulars: Streptococcus mutans (UA159); μM. Format: cell-based. How it is done: as §1
The test system of experiment [4] is Candida albicans, ATCC 90028. Format: cell-based. Particulars: μM. How it is done:
as §1

`O=C(O)c1cc(O)c(O)c(O)c1` [GA, Gallic Acid]: in experiment [1], the “Calcium to phosphate molar ratio” value is 1.82 ± 0.08, the Lesion depth amounted to 62 ± 12 μm and the Mineral loss is on record as 0.88 ± 0.24 gHApcm^−3.
In experiment [2], “Polyphemusin-I (RRWCFRVCYRGFCYRKCR; disulfide 8-13, 4-17) [PI, reference compound]” showed an MBC/MFC of 160 and an MIC of 20. In experiment [3], this molecule gave an MBC/MFC of 80 and an MIC of 20. In experiment [4], this molecule had an MBC/MFC of 0.6 and an MIC of 0.3. Further, in experiment [1], the “Calcium to phosphate molar ratio” value is on record as 1.70 ± 0.06, the Lesion depth was determined as 96 ± 9 μm and the Mineral loss worked out at 1.32 ± 0.26 gHApcm^−3.
